Test results taken from EP0256125A1, “MEANS FOR PREVENTING MICROBIOLOGICAL OVERGROWING OF HARD SURFACE” (priority 1985, dated 1987).

Columns and labels:
Bakterien = experiment: Bactericidal activity, summary over all tested bacteria; assay type: cell-based
Experimental: (§1) Die bakterizide Aktivität des Kalium N-(vinyloxyethyl)-dithiocarbamats gegenüber den Bakterien, die von der Oberfläche von Wänden und Decken der Produktionsräume von Brauereien und Fabriken zur Herstellunq von alkoholfreien Getränken ausgeschieden wurden und die zu p.p.Bacillus, Micrococcus, Pseudomonas, Escherichiae gehören, wurde geprüft.
(§2) Es wurden wäßrige Lösungen des genannten Stoffes verschiedener Konzentration hergestellt, die so berechnet wurde, daß bei Einführung von 1 ml der Lösung in 25 ml geschmolzenen agarisierten Nährboden (45-50°C) die Konzentration des Stoffes im Nährboden von 0,003 bis 0,5% betrug. In 18 bis 24 Stunden wurde auf die Oberfläche des Nährbodens 0,1 ml der wäßrigen Suspension der eintägigen reinen Bakterienkulturen aufgetragen, die am Fleisch-Pepton-Agar gezüchtet wurden. Die Suspension wurde gleichmäßig verteilt. In Kontrollschalen wurden 0,1 ml Wasser auf der Oberfläche des Närhbodens verteilt.
(§3) Die Inkubation führte man bei einer Temperatur von 37°C während 5 Tage durch.
(§4) Die effektive Wirkung des Stoffes wurde nach dem Auftreten des Bakterienwachstums an der Oberfläche des Nährbodens bewertet.

[1] = Acute toxicity in white mice; conditions: mouse, in vivo, po
[2] = Storage stability (qualitative); assay type: physicochemical; conditions: result in words
p.Micrococcus = experiment: Bactericidal activity, growth on agar medium; assay type: cell-based; conditions: 37°C, 5 Tage
Experimental: as §1, §2, §3, §4

p. Escherichiae = experiment: Bactericidal activity, growth on agar medium; assay type: cell-based; conditions: 37°C, 5 Tage
Experimental: as §1, §2, §3, §4

p.Pseudomonas = experiment: Bactericidal activity, growth on agar medium; assay type: cell-based; conditions: 37°C, 5 Tage
Experimental: as §1, §2, §3, §4

p.Bacillus = experiment: Bactericidal activity, growth on agar medium; assay type: cell-based; conditions: 37°C, 5 Tage
Experimental: as §1, §2, §3, §4

[3] = Solubility in solvents (qualitative)
Penicillium chrysogenum = experiment: Fungicidal activity, inhibition of mycelium growth on wort agar; assay type: cell-based
Source text: (§5) Man prüfte die funguzide Aktivität von Zink-bis-(N-vi- nyloxyethyl)dithiocarbamat gegenüber den reinen Pilzkulturen: Gladosporium resinae, Cladosporium cladosporioides, Acremonium corvum, Acremonium charticola, Penicillium charlesii Smith, Walrotiela subiculesa, Geotrichum candidum Link, Oidium, Penicillium crysogenum. Die genannten Pilze wurden von den Oberflächen der Wände und Decken von Bierbrauereien und Werken für die Herstellung von alkoholfreien Getränken ausgeschieden.
(§6) […] In eine der Petri-Schalen wurde Nährboden mit 1 ml Azeton (Kontrolle) gegossen.
(§7) In 18 bis 20 Stunden nach dem Vergießen des Nährbodens in die Petri-Schalen führte man die Inokulation der reinen Pilzkultur durch, die vorher an einem Schräg-Würzeagar während 15 Tage gezüchtet wurden. Die Inkubation führte man bei einer Temperatur von 25 bis 27°C während 5 Tage durch. Danach wurde der Durchmesser der Pilzkolonien gemessen und der Prozentsatz der Hemmung des Wachstums des Myzeliums (S) nach der Abbott -Formel gezählt: [formula] worin dc Durchmesser der Pilzkolonien in Kontrolle ist, de =Durchmesser der Pilzkolonien in einer Schale mit dem Nährboden ist, der Zink-bis-(N-vinyloxyethyl)dithiocarbamat enthält.

Cladosporium resinae = experiment: as above; assay type: cell-based; conditions: Amorphotheca resinae, 120 h, read-out: Hemmung des Myzeliums am 5. Tag des Wachstums, Cladosporium resinae
Source text: as §5, §6, §7

[4] = system: Cladosporium cladosporioides; experiment: as above; assay type: cell-based; conditions: Cladosporium cladosporioides, 120 h, read-out: Hemmung des Myzeliums am 5. Tag des Wachstums, Cladosporium cladosporioides
Source text: as §5, §6, §7

Geotrichum candidum Link = experiment: as above; assay type: cell-based
Source text: as §5, §6, §7

Oidium = experiment: as above; assay type: cell-based
Source text: as §5, §6, §7

[5] = system: Penicillium charlesii Smith; experiment: as above; assay type: cell-based; conditions: Penicillium charlesii, 120 h, read-out: Hemmung des Myzeliums am 5. Tag des Wachstums, Penicillium charlesii Smith
Source text: as §5, §6, §7

Walrotiela subiculesa = experiment: as above; assay type: cell-based; conditions: 120 h, read-out: Hemmung des Myzeliums am 5. Tag des Wachstums, Walrotiela subiculesa
Source text: as §5, §6, §7

Acremonium charticola = experiment: as above; assay type: cell-based; conditions: Acremonium charticola, 120 h, read-out: Hemmung des Myzeliums am 5. Tag des Wachstums, Acremonium charticola
Source text: as §5, §6, §7

Acremonium corvum = experiment: as above; assay type: cell-based; conditions: 120 h, read-out: Hemmung des Myzeliums am 5. Tag des Wachstums, Acremonium corvum
Source text: as §5, §6, §7

[6] = Konzentration des Stoffes 0,0015 %
[7] = Konzentration des Stoffes 0,003 %
[8] = Konzentration des Stoffes 0,00075 %
[9] = Konzentration des Stoffes 0,006 %
[10] = Konzentration des Stoffes 0,012 %

With `C=COCCNC(=S)[S-].[K+]` [Kalium-N-(vinyloxyethyl)dithiocarbamat] the “Konzentration, die das Wachstum der Bakterien vollständig hemmte” value (Bakterien) was 0,05%, the LD50 [1] was 1400 ± 350 mg/kg and the Lagerbeständigkeit [2] was “lagerbeständig”. The “Konzentration der Salze der N-(vinyloxyethyl)dithiocarbaminsäure (100%), die das Wachstum der Bakterien am 5. Tag des Wachstums hemmen, p.Micrococcus” value (p.Micrococcus) was 0,05%, the “Konzentration der Salze der N-(vinyloxyethyl)dithiocarbaminsäure (100%), die das Wachstum der Bakterien am 5. Tag des Wachstums hemmen, p. Escherichiae” value (p. Escherichiae) was 0,05% and the “Konzentration der Salze der N-(vinyloxyethyl)dithiocarbaminsäure (100%), die das Wachstum der Bakterien am 5. Tag des Wachstums hemmen, p.Pseudomonas” value (p.Pseudomonas) was 0,05%. For the same molecule, the “Konzentration der Salze der N-(vinyloxyethyl)dithiocarbaminsäure (100%), die das Wachstum der Bakterien am 5. Tag des Wachstums hemmen, p.Bacillus” value (p.Bacillus) was 0,05%, the “Löslichkeit im Alkohol” value ([3]; Alkohol (Ethylalkohol)) was “teilweise” and the “Löslichkeit im Azeton” value ([3]; Azeton) was “teilweise”. For the same molecule, the “Löslichkeit im Diethylether” value ([3]; Diethylether) was “unlöslich”, the “Löslichkeit in Wasser” value ([3]; Wasser) was “gut löslich” and the “Hemmung des Myzeliums am 5. Tag des Wachstums, Penicillium chrysogenum” value (Penicillium chrysogenum; [6]) was 30%. For the same molecule, the “Hemmung des Myzeliums am 5. Tag des Wachstums, Penicillium chrysogenum” value (Penicillium chrysogenum; [7]) was 55%, the inhibition of growth at 0.00075 % (Penicillium chrysogenum; Penicillium chrysogenum, 120 h, Konzentration des Stoffes 0,00075 %, read-out: Hemmung des Myzeliums am 5. Tag des Wachstums, Penicillium chrysogenum) was 0% and the inhibition of growth at 0.006 % (Penicillium chrysogenum; Penicillium chrysogenum, 120 h, Konzentration des Stoffes 0,006 %, read-out: Hemmung des Myzeliums am 5. Tag des Wachstums, Penicillium chrysogenum) was 90%. It also gave an inhibition of growth at 0.012 % (Penicillium chrysogenum; Penicillium chrysogenum, 120 h, Konzentration des Stoffes 0,012 %, read-out: Hemmung des Myzeliums am 5. Tag des Wachstums, Penicillium chrysogenum) of 100%, an inhibition of growth (Cladosporium resinae; [8]) of 70% and an inhibition of growth at 0.0015 % (Cladosporium resinae; [6]) of 100%. For the same molecule, the inhibition of growth at 0.003 % (Cladosporium resinae; [7]) was 100%, the inhibition of growth at 0.006 % (Cladosporium resinae; [9]) was 100% and the inhibition of growth at 0.012 % (Cladosporium resinae; [10]) was 100%. For the same molecule, the inhibition of growth [4, 8] was 100%, the inhibition of growth at 0.0015 % [4, 6] was 100% and the inhibition of growth at 0.003 % [4, 7] was 100%. The inhibition of growth at 0.006 % [4, 9] was 100%, the inhibition of growth at 0.012 % [4, 10] was 100% and the inhibition of growth at 0.00075 % (Geotrichum candidum Link; Geotrichum candidum, 120 h, Konzentration des Stoffes 0,00075 %, read-out: Hemmung des Myzeliums am 5. Tag des Wachstums, Geotrichum candidum Link) was 10%. For the same molecule, the inhibition of growth at 0.012 % (Geotrichum candidum Link; Geotrichum candidum, 120 h, Konzentration des Stoffes 0,012 %, read-out: Hemmung des Myzeliums am 5. Tag des Wachstums, Geotrichum candidum Link) was 100%, the “Hemmung des Myzeliums am 5. Tag des Wachstums, Geotrichum candidum Link” value (Geotrichum candidum Link; [6]) was 40% and the “Hemmung des Myzeliums am 5. Tag des Wachstums, Geotrichum candidum Link” value (Geotrichum candidum Link; [7]) was 100%. The “Hemmung des Myzeliums am 5. Tag des Wachstums, Geotrichum candidum Link” value (Geotrichum candidum Link; [9]) was 100%, the inhibition of growth at 0.00075 % (Oidium; 120 h, Konzentration des Stoffes 0,00075 %, read-out: Hemmung des Myzeliums am 5. Tag des Wachstums, Oidium) was 40% and the inhibition of growth at 0.003 % (Oidium; 120 h, Konzentration des Stoffes 0,003 %, read-out: Hemmung des Myzeliums am 5. Tag des Wachstums, Oidium) was 100%. The inhibition of growth at 0.006 % (Oidium; 120 h, Konzentration des Stoffes 0,006 %, read-out: Hemmung des Myzeliums am 5. Tag des Wachstums, Oidium) was 100%, the inhibition of growth at 0.012 % (Oidium; 120 h, Konzentration des Stoffes 0,012 %, read-out: Hemmung des Myzeliums am 5. Tag des Wachstums, Oidium) was 100% and the “Hemmung des Myzeliums am 5. Tag des Wachstums, Oidium” value (Oidium; [6]) was 96%. The inhibition of growth [5, 8] was 5%, the inhibition of growth at 0.0015 % [5, 6] was 30% and the inhibition of growth at 0.003 % [5, 7] was 55%. It also gave an inhibition of growth at 0.006 % [5, 9] of 90%, an inhibition of growth at 0.012 % [5, 10] of 100% and an inhibition of growth at 0.00075 % (Walrotiela subiculesa; [8]) of 90%. The inhibition of growth at 0.0015 % (Walrotiela subiculesa; [6]) was 100%, the inhibition of growth at 0.003 % (Walrotiela subiculesa; [7]) was 100% and the inhibition of growth at 0.006 % (Walrotiela subiculesa; [9]) was 100%. It also gave an inhibition of growth at 0.012 % (Walrotiela subiculesa; [10]) of 100%, an inhibition of growth (Acremonium charticola; [8]) of 90% and an inhibition of growth at 0.0015 % (Acremonium charticola; [6]) of 100%. The inhibition of growth at 0.003 % (Acremonium charticola; [7]) was 100%, the inhibition of growth at 0.006 % (Acremonium charticola; [9]) was 100% and the inhibition of growth at 0.012 % (Acremonium charticola; [10]) was 100%. It also gave an inhibition of growth (Acremonium corvum; [8]) of 94%, an inhibition of growth at 0.0015 % (Acremonium corvum; [6]) of 100% and an inhibition of growth at 0.003 % (Acremonium corvum; [7]) of 100%. It also gave an inhibition of growth at 0.006 % (Acremonium corvum; [9]) of 100% and an inhibition of growth at 0.012 % (Acremonium corvum; [10]) of 100%.
